The pKa sets of Baltruschat and Czodrowski (2020)

Details: acidic group

Row | SMILES | pKa
1 | CC(=O)CC(=O)CC(C)C | 9.07
2 | COc1ccc(NS(=O)(=O)c2ccccc2)cc1 | 8.88
3 | CC#CC#CCC(=O)O | 3.23
4 | O=C1CCCC(=O)N1 | 11.4
5 | CC(=O)[C@@H]1C[C@@H]1C(=O)O | 4.19
6 | O=C1C(O)=C(c2ccccc2)C(=O)c2ccccc21 | 4.35
7 | CCOC(=O)c1ccccc1-n1nc(O)cc1-c1ccccc1 | 12.4
8 | CC(=O)c1cccc(O)c1 | 9.12
9 | O=C(O)c1cccccc1=O | 3.73
10 | COc1cc2ccccc2cc1C(=O)O | 3.82
11 | Cc1cccc(O)c1 | 10
12 | O=C1NC(=O)c2cc(Cl)ccc21 | 9.48
13 | C[n+]1c(N)ccnc1[O-] | 13.5
14 | O=C1CCc2ccc(Cl)cc2C1 | 12.3
15 | C=C(C)[C@H]1C[NH2+][C@H](C(=O)O)[C@H]1CC(=O)OC | 1.95
16 | O=C1CCCC1=O | 9.14
17 | Cc1ccc(C(O)C(C(=O)O)c2ccc(C3CCCCC3)cc2)cc1 (configuration not stated) | 4.18
18 | Sc1ccc2ncccc2c1 | 6.5
19 | Cc1ccc([Se]O)c([N+](=O)[O-])c1 | 10.7
20 | O=[Se](O)c1ccccc1-c1ccccc1 | 4.67
21 | CC(C)c1cccc(C(=O)O)c1 | 4.27
22 | CCOC(=O)C(Cc1cccc(C)c1)C(C)=O (configuration not stated) | 11.9
23 | Cc1nn(C)c(O)c1-c1ccccc1 | 10.9
24 | O/N=C/c1cccnc1 | 10.3
25 | O=C(O)Cc1ccco1 | 3.72
26 | CC(=O)NO | 9.07

Row | SMILES | pKa
27 | Cc1cccc(-c2nnn[nH]2)c1 | 4.15
28 | CC=O | 16.8
29 | Cc1ccccc1C(=O)O | 3.92
30 | O=C(O)c1ccc(Br)s1 | 3.3
31 | CCC/C=C(\C)C(=O)O | 5.13
32 | CC[NH+](CC)Cc1cc(Br)ccc1O | 7.7
33 | CCC(C)(O)C(C(=O)O)c1ccc(-c2ccccc2)cc1 (configuration not stated) | 3.41
34 | S=c1[nH]c(SCc2ccccc2)c(-c2ccccc2)[nH]1 | 9.55
35 | O=[N+]([O-])c1ccc(/C(=N\O)c2ccccc2)cc1 | 10.8
36 | Oc1ccc2ccc(Cl)cc2c1 | 9.09
37 | C[n+]1cccc2c3ccccc3[nH]c21 | 7.4
38 | O=S1(=O)Nc2cccc3cccc1c23 | 6.2
39 | O=[N+]([O-])c1cccc([Se](=O)O)c1 | 4.07
40 | C/C(=N\O)C(=O)c1ccccc1 | 9.25
41 | CC1(C)[C@H]2CC[C@@]1(C)[C@@H](O)[C@H]2C(=O)O | 2.05
42 | CCN(CC)C(=S)S | 3.95
43 | O=[N+]([O-])c1ccc2c(c1)Cc1cc(O)ccc1-2 | 9.01
44 | CC1(C)[C@@H]2CC[C@](C(=O)O)(C2)[C@H]1O | 5.05
45 | CC1=C(C)C(C(C)C(=O)O)CC1=O (configuration not stated) | 4.4
46 | Cn1c(=O)c2c([nH]c(=O)n2C)n(C)c1=O | 6
47 | O=C(c1ccccc1)c1cccc([N+](=O)[O-])c1C(=O)O | 2.39
48 | COc1nc(-n2nc(C)cc2O)nc(C)c1C | 7.64
49 | NS(=O)(=O)c1cccc([N+](=O)[O-])c1 | 9.19
50 | Oc1cncc[nH+]1 | -0.1
51 | Cc1ccc(S(=O)(=O)NC(=O)OC(C)(C)C)cc1 | 5.05
52 | O=C(O)C[NH+](CC(=O)O)Cc1cc([N+](=O)[O-])ccc1O | 2.4

Row | SMILES | pKa
53 | NC(=O)C(N)CO (configuration not stated) | 7.3
54 | CC[NH2+]CC[SeH] | 5.04
55 | Oc1ccccc1O | 9.33
56 | O=S1(=O)N=CNc2nc[nH]c21 | 5.59
57 | CC(C)(C)S | 11.1
58 | C=CC[NH+](CC=C)CCCNC(=O)/C=N/O | 8.14
59 | O=[N+]([O-])c1cccc(S(=O)(=O)Nc2ccccc2)c1 | 7.5
60 | CCCC[NH2+]CCC(=O)O | 3.57
61 | CCCCCCc1c(-c2ccccc2)nn(-c2ccccc2)c1O | 7.4
62 | CC(c1cccc(C(F)(F)F)c1)[N+](=O)[O-] (configuration not stated) | 6.96
63 | CC/C(=N/O)C(C)=O | 9.38
64 | O=C(O)C1(O)CCC1 | 3.88
65 | O=[N+]([O-])c1cc(Br)ccc1O | 6.36
66 | COC(=O)[C@H]1[C@@H]2Cc3c4[nH]c5ccccc5c4cc[n+]3C[C@H]2CC[C@H]1O | 10.7
67 | O=C(O)[C@@H]1O[C@H](Oc2ccc3ccc[nH+]c3c2)[C@@H](O)[C@H](O)[C@H]1O | 3
68 | Oc1cccc(I)c1 | 9.02
69 | CSc1ncc2[nH]cnc2n1 | 8.91
70 | O=C1C(O)=C(Cc2ccccc2)C(=O)c2ccccc21 | 4.9
71 | C[NH+](C)CCCCCNC(=O)/C=N/O | 8.88
72 | Cc1cc(Cc2cc([N+](=O)[O-])ccc2O)cc(C)c1O | 7.12
73 | Cc1ccc(C(=S)Nc2ccc(Br)cc2)cc1 | 10.8
74 | CO[n+]1ccccc1N | 12.4
75 | O=S(=O)(O)c1cccc(C(F)(F)F)c1 | -6.93
76 | CC[NH+](CC)CC(=N\O)/C(C)=N/O | 8.5
77 | Cc1cccc(Cl)c1O | 8.7
78 | O=C([O-])c1cccc(O)c1 | 9.81

Same assay, conditions: basic group

Row | SMILES | pKa
79 | NCC=C(Cl)Cl | 9.3
80 | CCCCNc1cc[nH+]c([O-])n1 | 4.69
81 | CN(CCC[NH+](C)C)CCC[NH+](C)C | 6.4
82 | [O-]c1nc([O-])c2[nH]nnc2[nH+]1 | 4.2
83 | C[NH+]1CCN(C(c2ccccc2)c2ccccc2)CC1 | 2.16
84 | NCCCCCCCCCCCCN | 10.8
85 | C/C=C(/C)C(=O)O[C@H]1CC[C@@]2(C)[C@@H]3CC[C@H]4[C@]5(O)C[C@H](O)[C@@]6(O)[C@@H](CN7C[C@@H](C)CC[C@H]7[C@@]6(C)O)[C@]5(O)C[C@@]42O[C@]13O | 8.85
86 | c1ccc(C2CCCN2)cc1 (configuration not stated) | 9.6
87 | O=C(Nc1cccnc1)c1ccccc1 | 3.8
88 | C[C@]1([NH3+])C[C@@H]1N | 5.83
89 | CNCC(=O)N(C)C | 8.86
90 | C[n+]1c(N)ccnc1[O-] | 7.38
91 | CCc1c(C)nn(C)c1O | 3.5
92 | N[C@H]1CCC[C@@H]1O | 9.28
93 | N#Cc1ccc(CN)cc1 | 8.72
94 | Cc1ccc2c(ccn2C)c1 | -2.15
95 | Cc1cccnc1C | 6.57
96 | O/N=C/c1cccnc1 | 3.94
97 | COc1cccc2c1CN(C1CC3CCC(C1)N3Cc1ccccc1)C2=O (configuration not stated) | 8.68
98 | Nc1ccc(-c2ncc(-c3ccccc3)o2)cc1 | 3.01
99 | CC[C@]12CCCN3CC[C@@]4(c5cccc(OC)c5N[C@H]4CC1)[C@@H]32 | 8.46
100 | CC1NCCC[NH2+]1 | 7.19
101 | CO[C@H]1CC=C2CCN3CC[C@H](CO)/C(=C\CO)[C@]23C1 | 8.42

Row | SMILES | pKa
102 | CCCCCCCCOCCN(C)C | 8.87
103 | Cc1cc(C(c2ccc(N)cc2)c2ccc(N)cc2)ccc1[NH3+] | 3.8
104 | C1=C(c2ccco2)C2CCN1CC2 | 8.92
105 | CC=O | -0.57
106 | CN1C[C@@H](C(=O)[O-])C[C@@]2(O)c3cccc4[nH]cc(c34)C[C@@H]12 | 9.2
107 | [NH3+]c1ccc(-c2cnc(-c3ccc(Br)cc3)o2)cc1 | 0.26
108 | CC(C)SCCN | 9.23
109 | OCCCc1ccccn1 | 5.71
110 | O=C(Nc1ccccn1)c1ccccc1 | 3.33
111 | c1ccc(-c2ccc3ccc4cccnc4c3n2)cc1 | 4.9
112 | CCOC(=O)c1cnc2ccccc2c1OCC | 3.88
113 | S=c1[nH]c(SCc2ccccc2)c(-c2ccccc2)[nH]1 | -3.31
114 | c1ccc(-c2ncc[nH]2)cc1 | 6.39
115 | CN(C)c1ncccn1 | 3.96
116 | Cc1nc(C(=O)[O-])cs1 | 3.9
117 | Cc1c(N)ccc2c1-c1ccccc1C2 | 4.83
118 | c1ccc(-c2ccncc2)nc1 | 4.77
119 | Oc1ccc(NCc2ccccc2)cc1 | 5.17
120 | CN1CCCCCN1C | 6.66
121 | CC(O)c1ccccc1 (configuration not stated) | -7
122 | Cc1[nH+]c2cc(N)ccc2n1C | 3.38
123 | N/C(CC/C(N)=[NH+]/O)=N\O | 3.11
124 | Nc1ccc2cc3ccc4ccccc4c3nc2c1 | 6.72

Row | SMILES | pKa
125 | C/C(CCN(C)C)=N\[O-] | 11.2
126 | Cc1cc([S-])ncn1 | 7.3
127 | C1CNC[NH2+]C1 | 4.71
128 | CN(C)c1ccc2cc3ccc(N(C)C)cc3nc2c1 | 10.4
129 | [NH3+]C1CCN(Cc2ccccc2)CC1 | 7.05
130 | Nc1ccc2ccccc2c1[N+](=O)[O-] | -0.92
131 | Clc1ccc(/C=C/c2nnnn2-c2ccccc2)cc1 | -2.54
132 | CC(=O)c1ccc([O-])c(CN(C)C)c1 | 10
133 | COC(=O)CCCc1c[nH]cn1 | 7.33
134 | CC(C)(C)SC(=N)c1ccccc1 | 9.24
135 | CCCCCNCCCCC | 11.2
136 | Fc1cc2nc[nH]c2cc1Cl | 4.33
137 | OCCNC1CC[NH+](Cc2ccccc2)CC1 | 6.67
138 | CCC(=O)C(C[C@H](C)N1CCOCC1)(c1ccccc1)c1ccccc1 | 6.73
139 | CC(=O)NNC1CCN(C)CC1 | 8.7
140 | [NH3+]CCCc1ccccn1 | 4.98
141 | c1ccc(-c2cccc(-c3cccc[nH+]3)n2)nc1 | 3.28
142 | N[C@@H](Cc1c[nH]cn1)C(=O)N[C@@H](Cc1c[nH]cn1)C(=O)[O-] | 7.8
143 | OCCNc1ccccc1 | 4.09
144 | c1coc(CNc2ncnc3[nH]ncc23)c1 | 4.01
145 | CCOCCn1c(CN2CCCN(CCCCn3cccn3)CC2)nc2ccccc21 | 9.2
146 | Cc1ccccc1NC1CCCCC1 | 5.34
147 | C1OC1CN(CC1CO1)CC1CO1 (configuration not stated) | 5.01

Row | SMILES | pKa
148 | Nc1cccc(C(=O)[O-])c1 | 4.7
149 | CCN(CC)CCSC | 9.62
150 | OC[C@@H]1O[C@H](CN2CCOCC2)[C@@H](O)[C@H](O)[C@@H]1O | 6.1
151 | CN1CCCC1 | 10.6
152 | NC/C=C\C(=O)[O-] | 9.84
153 | Cn1/c(=N/N)ccc2ccccc21 | 9.17
154 | C#CCN | 8.19
155 | Nc1nc2cc3c(cc2[nH]1)CCCC3 | 7.69
156 | Cc1nnc(N)nc1C | 3.71
157 | CSc1ncc2[nH]cnc2n1 | 1.91
158 | CC(C)CCN | 10.9
159 | COc1ccc2c3c1O[C@H]1[C@@H](O)C=C[C@H]4[C@@H](C2)N(C)CC[C@@]341 | 8.05
160 | COc1ccc2c(c1)NCC[NH2+]2 | 1.93
161 | COc1cc(S(C)=O)ccc1-c1cn2ccncc2n1 (configuration not stated) | 2.88
162 | Nc1ccc(-c2ccc(/[NH+]=C/c3ccc(O)cc3)cc2)cc1 | 5.05
163 | O=[N+]([O-])c1ccc(NCO)cc1 | -0.33
164 | CCCN(CCC)CCC | 10.5
165 | CCc1cc(Cl)c(OC)c(C(=O)NC[C@H]2CCCN2CC)c1[O-] | 9.77
166 | C=CCC(C)(CN(CC)CC)OC(C)=O (configuration not stated) | 9.85
167 | c1[nH]c(Cc2c[nH]c(Cc3[nH]cc(Cc4c[nH]c[nH+]4)[nH+]3)n2)c[nH+]1 | 3.58
